Data taken from the kinase profiling compilation of Christmann-Franck et al. (2016).

Columns and labels:
Test in all cases: KINOMEscan competition binding
Conditions in all cases: compound 10.0 µM
[1] = molecular target: RIPK1 (human) (UniProt Q13546)
[2] = molecular target: CHEK1 (human) (UniProt O14757)
[3] = molecular target: INSRR (human) (UniProt P14616)
[4] = molecular target: FLT1 (human) (UniProt P17948)
[5] = molecular target: TSSK1B (human) (UniProt Q9BXA7)
[6] = molecular target: AXL (human) (UniProt P30530)
[7] = molecular target: ITK (human) (UniProt Q08881)
[8] = molecular target: FGFR1 (human) (UniProt P11362)
[9] = molecular target: CDK5 (human) (UniProt Q00535)
[10] = molecular target: DCLK3 (human) (UniProt Q9C098)
[11] = molecular target: NTRK2 (human) (UniProt Q16620)
[12] = molecular target: DMPK (human) (UniProt Q09013)
[13] = molecular target: CHUK (human) (UniProt O15111)
[14] = molecular target: MARK4 (human) (UniProt Q96L34)
[15] = molecular target: NEK5 (human) (UniProt Q6P3R8)
[16] = molecular target: MAP2K1 (human) (UniProt Q02750)
[17] = molecular target: RPS6KA4 KD2 (human) (UniProt O75676)
[18] = molecular target: PKN2 (human) (UniProt Q16513)
[19] = molecular target: RPS6KA6 KD1 (human) (UniProt Q9UK32)
[20] = molecular target: SLK (human) (UniProt Q9H2G2)
[21] = molecular target: TTK (human) (UniProt P33981)
[22] = molecular target: GSK3B (human) (UniProt P49841)
[23] = molecular target: EPHA1 (human) (UniProt P21709)
[24] = molecular target: ULK3 (human) (UniProt Q6PHR2)
[25] = molecular target: MAP2K2 (human) (UniProt P36507)
[26] = molecular target: CSNK2A1 (human) (UniProt P68400)
[27] = molecular target: SYK (human) (UniProt P43405)
[28] = molecular target: MAPK12 (human) (UniProt P53778)
[29] = molecular target: LYN (human) (UniProt P07948)
[30] = molecular target: PLK4 (human) (UniProt O00444)
[31] = molecular target: SRPK3 (human) (UniProt Q9UPE1)
[32] = molecular target: ROCK2 (human) (UniProt O75116)
[33] = molecular target: PRKCH (human) (UniProt P24723)
[34] = molecular target: MAP3K12 (human) (UniProt Q12852)
[35] = molecular target: SRMS (human) (UniProt Q9H3Y6)
[36] = molecular target: CSF1R (human) (UniProt P07333)
[37] = molecular target: CAMK2D (human) (UniProt Q13557)
[38] = molecular target: PKN1 (human) (UniProt Q16512)
[39] = molecular target: MAPKAPK2 (human) (UniProt P49137)
[40] = molecular target: CAMK1G (human) (UniProt Q96NX5)

Sequence of AXL (human) (P30530 whole entry, looked up): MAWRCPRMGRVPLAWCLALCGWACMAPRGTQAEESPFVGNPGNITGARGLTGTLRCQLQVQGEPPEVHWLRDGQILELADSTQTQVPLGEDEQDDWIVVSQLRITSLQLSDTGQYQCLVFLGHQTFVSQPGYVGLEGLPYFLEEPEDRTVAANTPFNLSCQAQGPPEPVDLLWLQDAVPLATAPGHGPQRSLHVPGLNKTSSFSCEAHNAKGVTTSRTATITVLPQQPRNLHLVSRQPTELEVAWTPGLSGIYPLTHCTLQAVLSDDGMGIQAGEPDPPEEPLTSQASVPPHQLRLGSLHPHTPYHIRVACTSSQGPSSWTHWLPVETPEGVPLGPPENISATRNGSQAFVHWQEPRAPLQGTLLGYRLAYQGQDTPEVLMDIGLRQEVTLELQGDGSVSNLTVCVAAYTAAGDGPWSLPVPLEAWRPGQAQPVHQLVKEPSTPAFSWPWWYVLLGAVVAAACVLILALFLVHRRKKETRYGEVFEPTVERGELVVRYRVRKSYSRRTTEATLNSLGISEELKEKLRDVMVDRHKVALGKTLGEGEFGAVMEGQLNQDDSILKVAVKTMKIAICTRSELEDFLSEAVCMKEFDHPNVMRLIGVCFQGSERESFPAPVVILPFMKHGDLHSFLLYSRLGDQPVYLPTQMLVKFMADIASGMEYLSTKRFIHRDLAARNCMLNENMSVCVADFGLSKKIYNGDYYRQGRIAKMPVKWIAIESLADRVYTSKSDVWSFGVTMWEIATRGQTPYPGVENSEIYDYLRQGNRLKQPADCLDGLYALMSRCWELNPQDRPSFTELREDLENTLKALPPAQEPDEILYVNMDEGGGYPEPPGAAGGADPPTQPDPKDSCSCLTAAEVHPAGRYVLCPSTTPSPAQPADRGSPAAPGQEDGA
Sequence of TTK (human) (P33981 whole entry, looked up): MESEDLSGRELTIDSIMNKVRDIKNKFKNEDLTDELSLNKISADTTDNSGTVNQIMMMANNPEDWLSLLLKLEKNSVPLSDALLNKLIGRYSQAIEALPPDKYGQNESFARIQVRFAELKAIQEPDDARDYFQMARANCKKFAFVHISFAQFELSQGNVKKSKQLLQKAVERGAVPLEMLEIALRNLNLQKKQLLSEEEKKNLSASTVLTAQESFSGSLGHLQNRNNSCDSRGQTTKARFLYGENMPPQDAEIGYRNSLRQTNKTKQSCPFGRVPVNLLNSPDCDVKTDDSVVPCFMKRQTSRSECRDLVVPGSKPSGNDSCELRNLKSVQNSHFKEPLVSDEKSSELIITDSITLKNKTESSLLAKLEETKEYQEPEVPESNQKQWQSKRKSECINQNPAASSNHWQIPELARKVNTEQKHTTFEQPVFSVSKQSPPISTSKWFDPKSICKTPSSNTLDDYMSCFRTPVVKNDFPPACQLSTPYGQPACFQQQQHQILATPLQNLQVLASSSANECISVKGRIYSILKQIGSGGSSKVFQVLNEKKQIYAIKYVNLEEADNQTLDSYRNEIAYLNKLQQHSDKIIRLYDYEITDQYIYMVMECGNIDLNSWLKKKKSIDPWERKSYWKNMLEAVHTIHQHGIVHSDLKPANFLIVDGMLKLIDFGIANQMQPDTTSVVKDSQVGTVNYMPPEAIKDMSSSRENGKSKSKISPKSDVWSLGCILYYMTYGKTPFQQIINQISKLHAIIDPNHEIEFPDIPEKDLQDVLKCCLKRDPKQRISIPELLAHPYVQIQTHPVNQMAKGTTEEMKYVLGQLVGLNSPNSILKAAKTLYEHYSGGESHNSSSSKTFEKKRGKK
Sequence of RIPK1 (human) (Q13546 whole entry, looked up): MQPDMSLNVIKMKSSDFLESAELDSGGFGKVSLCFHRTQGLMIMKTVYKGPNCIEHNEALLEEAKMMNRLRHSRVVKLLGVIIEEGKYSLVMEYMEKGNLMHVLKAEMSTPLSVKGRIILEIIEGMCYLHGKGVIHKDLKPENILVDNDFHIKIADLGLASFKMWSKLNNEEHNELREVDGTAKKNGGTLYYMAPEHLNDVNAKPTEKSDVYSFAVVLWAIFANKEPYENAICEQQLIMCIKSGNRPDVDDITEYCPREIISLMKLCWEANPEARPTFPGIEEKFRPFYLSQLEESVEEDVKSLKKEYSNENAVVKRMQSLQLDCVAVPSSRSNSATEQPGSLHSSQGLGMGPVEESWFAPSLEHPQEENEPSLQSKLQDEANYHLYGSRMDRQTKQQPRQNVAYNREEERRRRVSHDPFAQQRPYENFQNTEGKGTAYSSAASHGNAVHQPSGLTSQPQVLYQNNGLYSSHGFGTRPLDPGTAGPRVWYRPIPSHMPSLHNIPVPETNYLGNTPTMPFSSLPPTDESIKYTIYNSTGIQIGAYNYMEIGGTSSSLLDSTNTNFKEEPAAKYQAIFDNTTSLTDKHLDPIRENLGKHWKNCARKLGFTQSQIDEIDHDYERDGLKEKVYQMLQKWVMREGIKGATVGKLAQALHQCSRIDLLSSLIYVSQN
Sequence of FGFR1 (human) (P11362 whole entry, looked up): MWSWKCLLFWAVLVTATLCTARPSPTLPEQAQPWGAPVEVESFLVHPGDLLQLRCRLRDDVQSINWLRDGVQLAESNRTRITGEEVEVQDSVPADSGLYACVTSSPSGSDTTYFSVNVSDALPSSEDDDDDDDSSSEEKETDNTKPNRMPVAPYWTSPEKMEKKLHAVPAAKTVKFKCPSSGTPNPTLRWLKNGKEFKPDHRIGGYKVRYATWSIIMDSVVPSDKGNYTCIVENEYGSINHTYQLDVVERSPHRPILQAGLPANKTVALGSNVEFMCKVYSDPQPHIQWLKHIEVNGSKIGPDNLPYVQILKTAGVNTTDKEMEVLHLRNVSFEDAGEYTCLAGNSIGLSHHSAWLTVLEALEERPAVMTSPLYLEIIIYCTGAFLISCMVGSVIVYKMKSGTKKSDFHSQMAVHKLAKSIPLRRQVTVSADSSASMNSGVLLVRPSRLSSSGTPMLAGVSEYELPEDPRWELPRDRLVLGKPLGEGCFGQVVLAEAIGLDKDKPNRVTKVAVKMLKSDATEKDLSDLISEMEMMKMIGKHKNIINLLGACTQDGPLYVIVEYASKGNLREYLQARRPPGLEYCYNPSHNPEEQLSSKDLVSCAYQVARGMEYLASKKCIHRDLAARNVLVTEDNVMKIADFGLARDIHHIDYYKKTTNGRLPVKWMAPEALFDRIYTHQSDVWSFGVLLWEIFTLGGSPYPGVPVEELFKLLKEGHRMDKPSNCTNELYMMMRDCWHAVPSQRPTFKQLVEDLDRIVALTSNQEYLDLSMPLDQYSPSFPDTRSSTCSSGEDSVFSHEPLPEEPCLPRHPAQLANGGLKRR
Sequence of CSF1R (human) (P07333 whole entry, looked up): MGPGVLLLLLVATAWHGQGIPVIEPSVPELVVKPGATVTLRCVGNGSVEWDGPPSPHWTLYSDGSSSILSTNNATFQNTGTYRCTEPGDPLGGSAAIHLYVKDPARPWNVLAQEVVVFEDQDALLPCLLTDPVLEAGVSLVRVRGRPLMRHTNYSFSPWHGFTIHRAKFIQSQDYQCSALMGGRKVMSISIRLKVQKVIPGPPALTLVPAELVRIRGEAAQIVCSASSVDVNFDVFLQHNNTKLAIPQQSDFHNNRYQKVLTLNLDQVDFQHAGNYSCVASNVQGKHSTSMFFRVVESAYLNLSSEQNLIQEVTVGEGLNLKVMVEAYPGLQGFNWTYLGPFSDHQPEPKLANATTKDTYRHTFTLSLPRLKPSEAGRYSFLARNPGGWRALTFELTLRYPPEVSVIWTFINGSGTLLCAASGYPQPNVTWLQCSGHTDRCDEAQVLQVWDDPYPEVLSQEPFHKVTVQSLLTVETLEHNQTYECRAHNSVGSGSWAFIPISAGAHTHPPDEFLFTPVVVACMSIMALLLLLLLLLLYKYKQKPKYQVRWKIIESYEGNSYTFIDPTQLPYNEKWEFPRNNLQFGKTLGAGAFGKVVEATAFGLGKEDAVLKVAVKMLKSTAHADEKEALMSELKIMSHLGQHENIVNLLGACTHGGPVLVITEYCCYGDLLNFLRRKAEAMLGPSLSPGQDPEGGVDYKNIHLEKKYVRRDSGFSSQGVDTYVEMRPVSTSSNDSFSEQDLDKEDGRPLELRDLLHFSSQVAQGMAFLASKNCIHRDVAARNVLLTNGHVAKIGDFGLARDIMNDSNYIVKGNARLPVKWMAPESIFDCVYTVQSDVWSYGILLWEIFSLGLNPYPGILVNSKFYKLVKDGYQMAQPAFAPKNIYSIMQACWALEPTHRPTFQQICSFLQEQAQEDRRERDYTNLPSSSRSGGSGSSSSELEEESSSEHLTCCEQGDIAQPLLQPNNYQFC
Sequence of MARK4 (human) (Q96L34 whole entry, looked up): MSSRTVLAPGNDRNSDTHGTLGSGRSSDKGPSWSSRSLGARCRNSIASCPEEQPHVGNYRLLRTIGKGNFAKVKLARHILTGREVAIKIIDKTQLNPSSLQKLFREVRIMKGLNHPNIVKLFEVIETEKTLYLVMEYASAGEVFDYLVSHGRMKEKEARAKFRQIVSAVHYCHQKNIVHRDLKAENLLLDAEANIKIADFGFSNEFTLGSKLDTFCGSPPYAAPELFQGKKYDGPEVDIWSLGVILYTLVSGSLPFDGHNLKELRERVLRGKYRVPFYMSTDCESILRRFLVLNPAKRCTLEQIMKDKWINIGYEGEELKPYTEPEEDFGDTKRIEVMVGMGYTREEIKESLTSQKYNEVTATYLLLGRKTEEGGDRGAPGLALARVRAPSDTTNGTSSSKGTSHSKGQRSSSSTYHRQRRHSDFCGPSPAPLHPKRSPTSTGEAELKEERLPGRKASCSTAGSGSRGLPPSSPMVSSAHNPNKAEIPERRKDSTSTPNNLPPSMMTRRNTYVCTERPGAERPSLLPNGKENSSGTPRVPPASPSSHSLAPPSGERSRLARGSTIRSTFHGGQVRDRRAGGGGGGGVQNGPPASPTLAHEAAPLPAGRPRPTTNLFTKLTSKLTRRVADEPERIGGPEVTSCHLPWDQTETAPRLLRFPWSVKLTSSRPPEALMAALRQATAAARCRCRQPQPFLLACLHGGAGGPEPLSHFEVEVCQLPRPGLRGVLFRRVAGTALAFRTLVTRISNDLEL

Row | kinase still bound, per cent of control [1] | kinase still bound, per cent of control [2] | kinase still bound, per cent of control [3] | kinase still bound, per cent of control [4] | kinase still bound, per cent of control [5] | kinase still bound, per cent of control [6] | kinase still bound, per cent of control [7] | kinase still bound, per cent of control [8] | kinase still bound, per cent of control [9] | kinase still bound, per cent of control [10] | kinase still bound, per cent of control [11] | kinase still bound, per cent of control [12] | kinase still bound, per cent of control [13] | kinase still bound, per cent of control [14] | kinase still bound, per cent of control [15] | kinase still bound, per cent of control [16] | kinase still bound, per cent of control [17] | kinase still bound, per cent of control [18] | kinase still bound, per cent of control [19] | kinase still bound, per cent of control [20] | other results | SMILES
1 | 100% | 100% | 100% | 33% | 100% | 100% | 100% | 100% | 100% | 100% | 32% | 100% | 100% | 100% | 100% | 100% | 100% | 100% | 100% | 100% | kinase still bound, per cent of control [21]: 100%; kinase still bound, per cent of control [22]: 100%; kinase still bound, per cent of control [23]: 100%; kinase still bound, per cent of control [24]: 100%; kinase still bound, per cent of control [25]: 100%; kinase still bound, per cent of control [26]: 100%; kinase still bound, per cent of control [27]: 100%; kinase still bound, per cent of control [28]: 100%; kinase still bound, per cent of control [29]: 9.4%; kinase still bound, per cent of control [30]: 100%; kinase still bound, per cent of control [31]: 100%; kinase still bound, per cent of control [32]: 100%; kinase still bound, per cent of control [33]: 100%; kinase still bound, per cent of control [34]: 100%; kinase still bound, per cent of control [35]: 100%; kinase still bound, per cent of control [36]: 1.4%; kinase still bound, per cent of control [37]: 100%; kinase still bound, per cent of control [38]: 100%; kinase still bound, per cent of control [39]: 100%; kinase still bound, per cent of control [40]: 100% | Cc1ccc(C(=O)Nc2cccc(C(F)(F)F)c2)cc1Nc1cncc(C(N)=O)c1
2 | 100% | 100% | 100% | 100% | 100% | 100% | 100% | 100% | 100% | 100% | 100% | 100% | 100% | 100% | 100% | 100% | 100% | 100% | 100% | 100% | kinase still bound, per cent of control [21]: 100%; kinase still bound, per cent of control [22]: 100%; kinase still bound, per cent of control [23]: 100%; kinase still bound, per cent of control [24]: 100%; kinase still bound, per cent of control [25]: 100%; kinase still bound, per cent of control [26]: 100%; kinase still bound, per cent of control [27]: 100%; kinase still bound, per cent of control [28]: 100%; kinase still bound, per cent of control [29]: 100%; kinase still bound, per cent of control [30]: 100%; kinase still bound, per cent of control [31]: 100%; kinase still bound, per cent of control [32]: 100%; kinase still bound, per cent of control [33]: 100%; kinase still bound, per cent of control [34]: 100%; kinase still bound, per cent of control [35]: 100%; kinase still bound, per cent of control [36]: 100%; kinase still bound, per cent of control [37]: 100%; kinase still bound, per cent of control [38]: 100%; kinase still bound, per cent of control [39]: 100%; kinase still bound, per cent of control [40]: 100% | OCCCNc1cc(-c2ccnc(Nc3cccc(Cl)c3)n2)ccn1
